In US7183061B2, “Method of expressing Heliothis ecdysone receptor fusion protein” (Syngenta Limited, priority 1996, dated 2007):

Target: T1, chimeric ecdysone receptor and reporter gene cassette (pES1) (UniProt O18473+P04150)
T1 construct: expressed in transfected cells; host or cells: stably transformed tobacco plants (A9)
T1 sequence (P04150+O18473 with tags, fused parts or gaps): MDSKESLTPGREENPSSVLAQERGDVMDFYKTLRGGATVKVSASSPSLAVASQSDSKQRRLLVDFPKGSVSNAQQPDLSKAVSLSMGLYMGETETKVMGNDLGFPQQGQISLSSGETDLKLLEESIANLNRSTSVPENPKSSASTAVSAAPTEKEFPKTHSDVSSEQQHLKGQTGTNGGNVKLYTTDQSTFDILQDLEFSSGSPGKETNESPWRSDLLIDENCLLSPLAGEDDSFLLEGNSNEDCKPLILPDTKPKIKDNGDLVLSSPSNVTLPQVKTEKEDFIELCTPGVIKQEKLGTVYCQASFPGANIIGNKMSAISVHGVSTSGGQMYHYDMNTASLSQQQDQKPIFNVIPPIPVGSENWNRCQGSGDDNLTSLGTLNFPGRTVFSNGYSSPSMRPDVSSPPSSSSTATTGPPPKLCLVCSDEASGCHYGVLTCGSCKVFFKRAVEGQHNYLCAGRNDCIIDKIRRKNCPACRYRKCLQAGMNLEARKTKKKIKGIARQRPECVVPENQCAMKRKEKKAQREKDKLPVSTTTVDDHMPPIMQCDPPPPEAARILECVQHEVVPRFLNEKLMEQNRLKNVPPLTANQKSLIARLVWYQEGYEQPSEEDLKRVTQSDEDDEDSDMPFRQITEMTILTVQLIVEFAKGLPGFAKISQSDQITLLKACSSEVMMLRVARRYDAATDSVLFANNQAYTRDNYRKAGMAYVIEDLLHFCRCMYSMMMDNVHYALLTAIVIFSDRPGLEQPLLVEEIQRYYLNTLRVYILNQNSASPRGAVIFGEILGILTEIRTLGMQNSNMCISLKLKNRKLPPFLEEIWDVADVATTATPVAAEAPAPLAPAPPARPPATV
Test: GUS activity in stably transformed tobacco plants (pES1)
Format: in vivo, Heliothis virescens
From the text: The methodology described below was used to produce four different stable Tobacco vectors. The method involves three steps: • 1. pbluescript SK HindIII/EcoRI vector was ligated to either GRE6-4635SCaMVGUSNOS HindIII/EcoRI (from p221.10GRE6) or GRE6-6035SCaMVGUSNOS HindIII/EcoRI (from p221.9GRE6) resulting in plasmid pSK-46 and pSK-60. • 2. This step involves the addition of the chimeric receptor (35SGRHEcRNOS or 35SGRVP16HEcRNOS) to pSK-60 or pSK-46. Thus a pSK-60 (or pSK-46) XbaI vector was ligated with either the 3.4 kb 35SGRHEcRNOS XbaI or the 3.0 kb 35SGRVP16HEcRNOS XbaI DNA fragment to produce pSKES1 (pSKGRE6-6035SCaMVGUSNOS-35SGRHEcRNOS), pSKES2 (pSKGRE6-4635 SCaMVGUSNOS-35 SGRHEcRNOS), pSKES3 (pSKGRE6-6035SCaMVGUSNOS-35SGRVP16HEcRNOS) and pSKES4 (pSKGRE6-4635SCaMVGUSNOS-35SGRVP16HEcRNOS). • 3. Transfer from pBluescript based vectors to binary vectors. The transfer of the ES1 (FIG. 29) ES2 (FIG. 30), ES3 (FIG. 31) or ES4 (FIG. 32) DNA fragments into the binary vector JR1 involves five steps: • (i) Restriction enzyme digestion of pSKES1 (ES2, ES3, and ES4) with ApaI and NotI to liberate the insert from the vector pBluescript. • (ii) The two DNA fragments were BamHI methylated for 2 hours at 37° C. in TRIS-HCl, MgCl, 80 μM SAM (S-adenosylmethionine) and 20 U of BamHI methylase. • (iii) Ligate an ApaI/NotI linker onto the fragment. The linker was designed to have an internal BamHI site: • ApaBNot1 5′ cattggatccttagc 3′ (SEQ ID NO: 46) and • ApaBNot2 5′ […] 3′ (SEQ ID NO: 47). • (iv) Restriction enzyme digest the protected and linkered fragment with BamHI and fractionate the products on a 1% (w/v) agarose gel. The protected DNA fragment (5.5 kb) was cut out of the gel and purified. • (v) A ligation of JRI BamHI vector with the protected band was carried out to produce JRIESI (JRIES2, JRIES3 or JRIES4). The DNA of the recombinant was characterised by restriction mapping and the sequence of the junctions determined. […]

Measured: GUS activity

CCc1ccc(C(=O)NN(C(=O)c2cc(C)cc(C)c2)C(C)(C)C)cc1 [RH5992, 3,5-dimethylbenzoic acid 1-1(1,1-dimethylethyl)-2(4-ethylbenzoyl)hydrazide]
significantly elevated: 5 mM foliar application, 8 week old glasshouse grown tobacco plants | seedlings grown hydroponically in the presence of inducer | transgenic tobacco treated in cell culture, 100 μM in MS media
